The values that follow come from US6339088B1, “Composition for treatment of external secretion disorders except hypol acrimation” (R-Tech Ueno. Ltd., priority 1999, dated 2002).

One assay deals with diabetic patient. The assay is described as follows: Saliva secretion in a diabetic patient after instillation of 0.3% eye drops. Type of assay: in vivo, human. Conditions: 0.3% eye drops instilled four times a day, sixth day after start of administration. The source says:
[3-(4-Bromo-2-fluorobenzyl)-7-chloro-2,4-dioxo-1,2,3,4-tetrahydroquinazolin-1-yl]acetate, a compound represented by the general formula (II) having aldose reductase-inhibiting effect as an active ingredient was used for preparation of a 0.3% eye drops.
The 0.3% eye drops was instilled to a diabetic patient four times a day.

The subject of the next assay is Male Sprague-Dawley rats. Description: Effect on saliva secretion in rats (filter-paper infiltration distance). The assay is classed as in vivo, rat. Conditions: 50 μL of 0.3% solution intraorally three times a day on Day 1 and 2, measured Day 3 one hour after administration. The protocol:
[3-(4-Bromo-2-fluorobenzyl)-7-chloro-2,4-dioxo-1,2,3,4-tetrahydroquinazolin-1-yl]acetate, a compound represented by the general formula (II) having aldose reductase-inhibiting effect as an active ingredient was used for preparation of a 0.3% solution.
Male Sprague-Dawley rats (aged 7 weeks) were used. The rats were intraorally administered with 50 μL of the 0.3% solution or distilled water three times a day (10:00, 14:00, 18:00) on Day 1 and Day 2. On Day 3, the time upon lapse of one hour after the administration at 10:00 and 14:00, a strip of filter-paper (Schirmer Tear Production Measuring Strips: SHOWA YAKUHIN KAKO CO., LTD.) with the length of 37 mm and width of 5 mm was inserted between the lower teeth gums and the lower jaw of the rat to absorb the saliva into the filter-paper. The infiltration distance of the saliva into the filter-paper was measured every 1 minute for 5 minutes.

The structures appear in SMILES notation.

Take `O=C(O)Cn1c(=O)n(Cc2ccc(Br)cc2F)c(=O)c2ccc(Cl)cc21` [formula (II), [3-(4-bromo-2-fluorobenzyl)-7-chloro-2,4-dioxo-1,2,3,4-tetrahydroquinazolin-1-yl]acetate]: the saliva secretion entry with diabetic patient is reported as “obvious sthenia of saliva secretion”. In addition, in the assay on Male Sprague-Dawley rats (after 1 min.), the “The infiltration distance of the saliva into filter-paper, mm, mean ± S.E., after 1 min.” value stood at 8.1 ± 1.5 mm. The “The infiltration distance of the saliva into filter-paper, mm, mean ± S.E., after 2 min.” value in the assay with Male Sprague-Dawley rats (after 2 min.) amounted to 10.6 ± 1.8 mm. Further, in the assay with Male Sprague-Dawley rats (after 3 min., * P<0.05 vs control), the “The infiltration distance of the saliva into filter-paper, mm, mean ± S.E., after 3 min.” value was 12.6 ± 2.0* mm. In the assay on Male Sprague-Dawley rats (after 4 min., * P<0.05 vs control), the “The infiltration distance of the saliva into filter-paper, mm, mean ± S.E., after 4 min.” value is 13.6 ± 2.1* mm. In addition, the “The infiltration distance of the saliva into filter-paper, mm, mean ± S.E., after 5 min.” value in the assay with Male Sprague-Dawley rats (after 5 min.) came out at 14.5 ± 2.3 mm.
